Experimental data taken from ChEMBL document CHEMBL3885861, “Open TG-GATES”.

Organism: Rattus norvegicus
Assay: Open TG-GATES - Regimen: Single
Assay type: toxicity, organism-based, Sprague-Dawley
Parameters: regimen Single, gender Male, age 6 weeks
Settings: in vivo, po, 3 mg/kg, route gavage, dose level Low; for APTT / Bas / Eos / Fbg / Hb / Ht / Lym / MCH / MCHC / MCV / Mono / Neu / PT / Plat / RBC / Ret / WBC: tissue Blood; for KIDNEY_L / KIDNEY_R / KIDNEY_TOTAL: tissue Kidney; for LIVER: tissue Liver; for A/G / ALP / ALT / AST / BUN / CRE / Ca / Cl / DBIL / GLC / IP / K / LDH / Na / PL / RALB / TBIL / TC / TG / TP / gamma-GTP: tissue Plasma

C[C@H]1C(=O)O[C@@H]2CCN3CC=C(COC(=O)[C@](C)(O)[C@]1(C)O)[C@H]23 [MONOCROTALINE]
TERMINAL_BW (3 h): 207 g | APTT (3 h): 21.1 s | Bas (3 h): 0% | Eos (3 h): 0.8% | Fbg (3 h): 296.8 mg/dL | Hb (3 h): 13.5 g/dL | Ht (3 h): 39.3% | Lym (3 h): 80.4% | MCH (3 h): 21.9 pg | MCHC (3 h): 34.3% | MCV (3 h): 63.9 fL | Mono (3 h): 2.6% | Neu (3 h): 16.6% | PT (3 h): 16.6 s | Plat (3 h): 121 x10_4/uL | RBC (3 h): 615.6 x10_4/ul | Ret (3 h): 8.9% | WBC (3 h): 70.3 x10_2/uL | KIDNEY_L (3 h): 0.9 g | KIDNEY_R (3 h): 0.9 g | KIDNEY_TOTAL (3 h): 1.8 g | LIVER (3 h): 9.6 g | A/G (3 h): 1.4 | ALP (3 h): 1405.4 IU/L | ALT (3 h): 40.4 IU/L | AST (3 h): 70.6 IU/L | BUN (3 h): 14.4 mg/dL | CRE (3 h): 0.1 mg/dL | Ca (3 h): 10.6 mg/dL | Cl (3 h): 106.4 meq/L | DBIL (3 h): 0.002 mg/dL | GLC (3 h): 176.6 mg/dL | IP (3 h): 8.6 mg/dL | K (3 h): 4.2 meq/L | LDH (3 h): 232.4 IU/L | Na (3 h): 142.8 meq/L | PL (3 h): 141 mg/dL | RALB (3 h): 3.1 g/dL | TBIL (3 h): 0.014 mg/dL | TC (3 h): 79.4 mg/dL | TG (3 h): 73.8 mg/dL | TP (3 h): 5.4 g/dL | gamma-GTP (3 h): 1 IU/L | TERMINAL_BW (6 h): 213.3 g | APTT (6 h): 20.6 s | Bas (6 h): 0% | Eos (6 h): 0.8% | Fbg (6 h): 314 mg/dL | Hb (6 h): 13.4 g/dL | Ht (6 h): 39.7% | Lym (6 h): 77.6% | MCH (6 h): 21.3 pg | MCHC (6 h): 33.9% | MCV (6 h): 62.8 fL | Mono (6 h): 2.4% | Neu (6 h): 17.8% | PT (6 h): 16.2 s | Plat (6 h): 124.3 x10_4/uL | RBC (6 h): 632.2 x10_4/ul | Ret (6 h): 9.3% | WBC (6 h): 86.8 x10_2/uL | KIDNEY_L (6 h): 0.9 g | KIDNEY_R (6 h): 0.9 g | KIDNEY_TOTAL (6 h): 1.9 g | LIVER (6 h): 9.9 g | A/G (6 h): 1.3 | ALP (6 h): 1354.2 IU/L | ALT (6 h): 40 IU/L | AST (6 h): 67.2 IU/L | BUN (6 h): 12.2 mg/dL | CRE (6 h): 0.1 mg/dL | Ca (6 h): 10.7 mg/dL | Cl (6 h): 106 meq/L | DBIL (6 h): 0.004 mg/dL | GLC (6 h): 175.2 mg/dL | IP (6 h): 9.3 mg/dL | K (6 h): 4.5 meq/L | LDH (6 h): 200 IU/L | Na (6 h): 141.8 meq/L | PL (6 h): 139.8 mg/dL | RALB (6 h): 3.1 g/dL | TBIL (6 h): 0.01 mg/dL | TC (6 h): 78 mg/dL | TG (6 h): 86.2 mg/dL | TP (6 h): 5.4 g/dL | gamma-GTP (6 h): 1.2 IU/L | TERMINAL_BW (9 h): 205.5 g | APTT (9 h): 21 s | Bas (9 h): 0% | Eos (9 h): 0.6% | Fbg (9 h): 291 mg/dL | Hb (9 h): 13.3 g/dL | Ht (9 h): 38.9% | Lym (9 h): 79.8% | MCH (9 h): 20.7 pg | MCHC (9 h): 34.2% | MCV (9 h): 60.6 fL | Mono (9 h): 2.2% | Neu (9 h): 16.2% | PT (9 h): 16.4 s | Plat (9 h): 126 x10_4/uL | RBC (9 h): 642.2 x10_4/ul | Ret (9 h): 8.7% | WBC (9 h): 73.2 x10_2/uL | KIDNEY_L (9 h): 0.9 g | KIDNEY_R (9 h): 1 g | KIDNEY_TOTAL (9 h): 1.9 g | LIVER (9 h): 8.8 g | A/G (9 h): 1.3 | ALP (9 h): 1565.2 IU/L | ALT (9 h): 35.6 IU/L | AST (9 h): 67 IU/L | BUN (9 h): 12.4 mg/dL | CRE (9 h): 0.1 mg/dL | Ca (9 h): 10.5 mg/dL | Cl (9 h): 106 meq/L | DBIL (9 h): 0.006 mg/dL | GLC (9 h): 184.4 mg/dL | IP (9 h): 9.5 mg/dL | K (9 h): 4 meq/L | LDH (9 h): 197 IU/L | Na (9 h): 142.2 meq/L | PL (9 h): 130.6 mg/dL | RALB (9 h): 3.1 g/dL | TBIL (9 h): 0.02 mg/dL | TC (9 h): 72.2 mg/dL | TG (9 h): 48.6 mg/dL | TP (9 h): 5.4 g/dL | gamma-GTP (9 h): 1 IU/L | TERMINAL_BW (24 h): 217.7 g | APTT (24 h): 20.9 s | Bas (24 h): 0% | Eos (24 h): 1% | Fbg (24 h): 305 mg/dL | Hb (24 h): 13.2 g/dL | Ht (24 h): 38.8% | Lym (24 h): 80.6% | MCH (24 h): 20.5 pg | MCHC (24 h): 34.1% | MCV (24 h): 60.3 fL | Mono (24 h): 2.6% | Neu (24 h): 15% | PT (24 h): 16.2 s | Plat (24 h): 117.2 x10_4/uL | RBC (24 h): 645.2 x10_4/ul | Ret (24 h): 7.7% | WBC (24 h): 97.3 x10_2/uL | KIDNEY_L (24 h): 1 g | KIDNEY_R (24 h): 1 g | KIDNEY_TOTAL (24 h): 2 g | LIVER (24 h): 10.4 g | A/G (24 h): 1.3 | ALP (24 h): 1841.2 IU/L | ALT (24 h): 43.6 IU/L | AST (24 h): 70.2 IU/L | BUN (24 h): 16.4 mg/dL | CRE (24 h): 0.1 mg/dL | Ca (24 h): 10.8 mg/dL | Cl (24 h): 106.4 meq/L | DBIL (24 h): 0.006 mg/dL | GLC (24 h): 178 mg/dL | IP (24 h): 7.6 mg/dL | K (24 h): 4.2 meq/L | LDH (24 h): 220.2 IU/L | Na (24 h): 142.2 meq/L | PL (24 h): 160.2 mg/dL | RALB (24 h): 3.2 g/dL | TBIL (24 h): 0.006 mg/dL | TC (24 h): 81.2 mg/dL | TG (24 h): 102.8 mg/dL | TP (24 h): 5.6 g/dL | gamma-GTP (24 h): 1 IU/L
